Measured values: PubChem BioAssay (NCI)
Several values for one entry are separate records, joined by “and”; a condition that tells them apart may be missing. Equal entries are not always repeated.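 Grown in 96-well plates, cells were treated for 48 hours with each compound at five concentrations. Insufficient inhibition: endpoint recorded as highest concentration tested. GI50 is the concentration that inhibits growth by half. TGI is the concentration that stops growth completely.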

Assays:
Assay in all cases: NCI-60 cell line screen, 48 h
SK-OV-3 ovarian = system: SK-OV-3 ovarian
HOP-92 NSCLC = system: HOP-92 NSCLC
UO-31 renal = system: UO-31 renal
786-0 renal = system: 786-0 renal
SK-MEL-2 melanoma = system: SK-MEL-2 melanoma
K-562 leukemia = system: K-562 leukemia
SF-295 CNS = system: SF-295 CNS
KM12 colon = system: KM12 colon
MOLT-4 leukemia = system: MOLT-4 leukemia
MDA-MB-231 breast = system: MDA-MB-231 breast

Compound	GI50 (SK-OV-3 ovarian)	TGI (SK-OV-3 ovarian)	GI50 (HOP-92 NSCLC)	TGI (HOP-92 NSCLC)	GI50 (UO-31 renal)	TGI (UO-31 renal)	GI50 (786-0 renal)	TGI (786-0 renal)	GI50 (SK-MEL-2 melanoma)	TGI (SK-MEL-2 melanoma)	GI50 (K-562 leukemia)	TGI (K-562 leukemia)	GI50 (SF-295 CNS)	TGI (SF-295 CNS)	GI50 (KM12 colon)	TGI (KM12 colon)	GI50 (MOLT-4 leukemia)	TGI (MOLT-4 leukemia)	GI50 (MDA-MB-231 breast)	TGI (MDA-MB-231 breast)
COc1ccc(Cl)cc1Nc1nc(C(F)(F)F)ccc1C(=O)NN	3.88 µM	> 68.1 µM	2.56 µM	40.1 µM	3.97 µM	> 76.7 µM	2.42 µM	> 25.8 µM	2.7 µM	> 100 µM	3.35 µM	> 100 µM	1.97 µM	11.7 µM	9.08 µM	> 100 µM	2.53 µM	> 24.3 µM	4.58 µM	> 100 µM
NS(=O)(=O)c1ccc(N2Cc3cc(Cl)ccc3OC3=C2C(=O)N(CC2CCCCC2)C3=O)cc1	2.07 µM	4.26 µM	1.31 µM	2.67 µM	1.1 µM	2.32 µM	0.207 µM	0.482 µM	1.86 µM	3.65 µM	0.27 µM	0.736 µM	1.81 µM	4.03 µM	1.83 µM	4.08 µM	0.195 µM	0.531 µM	1.11 µM	2.6 µM
Clc1ccccc1NN(Cc1ccccn1)c1ccccc1Cl		94.9 µM		30.5 µM		34.8 µM		31.6 µM		32.6 µM		68.7 µM		71.4 µM		32.9 µM		41.9 µM		57.4 µM
COc1ccc(OC)c(-c2cc(-c3ccccc3)nn2-c2ccc(S(=O)(=O)NC(C)=O)cc2)c1			14.4 µM	38.9 µM	25.3 µM	> 100 µM	10.8 µM	23.4 µM	36.2 µM	> 100 µM	3.36 µM	9.76 µM	16.1 µM	35.1 µM	4.66 µM	39.6 µM	6.57 µM	> 100 µM	3.09 µM	14.1 µM
CN1CCCN(CCNc2nccc(-c3c(-c4cccc(O)c4)nc4sccn34)n2)S1(=O)=O	3.44 µM and 3.21 µM	21.3 µM and 17 µM	12.1 µM and 16 µM	51.6 µM and 77.5 µM	5.2 µM and 6.46 µM	39 µM and > 87.2 µM	5.55 µM and 7.14 µM	72.4 µM and > 100 µM	2.37 µM and 2.15 µM	7.29 µM and 6.74 µM	12.9 µM and 5.9 µM	75 µM and > 100 µM	12.9 µM and 13.3 µM	32.1 µM and 38.8 µM	11.7 µM and 9.82 µM	32.5 µM and 55.8 µM	14.5 µM and 10.2 µM	52.1 µM and 41.2 µM	10 µM and 8.06 µM	59.2 µM and > 84.4 µM
COc1cc(-c2oc3ccccc3c(=O)c2O)cc(OC)c1OC		> 100 µM		44 µM		> 100 µM		41.6 µM		> 100 µM		> 100 µM		> 100 µM		> 100 µM		> 100 µM		> 100 µM
COc1ccc(-c2cc(-c3ccc(Cl)cc3)c(C#N)c(=O)n2CCCCC(=O)Nc2ccccc2N)cc1	11.3 µM	54.3 µM	2.59 µM	9.99 µM	4.71 µM	> 100 µM	7.46 µM	> 100 µM	9.05 µM	37.8 µM	4.18 µM	> 100 µM	2.33 µM	5.96 µM	5.17 µM	> 100 µM	4.89 µM	> 100 µM	7.86 µM	> 100 µM
